Assays:
H3K9Me2 = conditions: repeated cocaine; cited from earlier work
rats = experiment: Acute adverse effects (serotonin-associated toxicity) in the behaviour study; type: in vivo
Description: In this instance the animals were 9 weeks old at the initiation of drug exposures and we selected just the high (20 mg/kg) dose of 5-MeO-DMT from the molecular study. […] Due to the number of behavioral paradigms to be completed by each animal we divided the study into two cohorts staggered by two weeks with 8 animals coming from each cohort to make up the 16 animals for each treatment group. 23 hours after 5-MeO-DMT administration the animals were introduced to the open field arena where they were allowed to freely explore the area for 5 mins. Following the open field test (OFT) animals were returned to their home cage for 2 hours before beginning either the elevated plus maze (EPM) or pre-pulse inhibition (PPI) testing. 24 hours after completing the OFT animals were returned to the chamber for the first session in novel object (NO1) testing. The animals were returned to their home cage for 2 hours before beginning the EPM or PPI test. 24 hours after NO1 the animals returned to the open field chamber for the second session in novel object (N02) testing. After completing N02 animals were returned to their home cage for 2 hours before they underwent the forced swim test (FST) pre-test. 24 hours later the animals were returned to the FS cylinders for the FST. Upon completion of the FST all animals were euthanized. A timeline of this experimental cohort is described in FIG. 8A.
Within 5-10 mins of administration a series of symptoms emerged that we believed were indicative of acute serotonin-associated toxicity, usually termed “serotonin syndrome” as a result of excessive serotonergic activity (Haberzettl et al. 2013). These symptoms overlap with those induced by acute psychedelic administration including head twitches, tremor, hind limb abduction, Straub tail, head shaking, head weaving and flat/low body posture however in this instance symptoms progressed rapidly to include hyperthermia, tachycardia, trembling and seizures. […] In total 7 of the 16 animals that were administered 20 mg/kg 5-MeO-DMT died or were euthanized for ethical reasons. […] As the study was divided into two cohorts we consulted with the designated vet in BMF as to what amendments should be made to our study protocol to reduce the risk of harm to animals in cohort 2 and a number of changes were implemented to the study design as outlined below.
The experiment was conducted as described for cohort 1 for the first 13 days of injections. There are a number of notable differences in experimental procedures between the two cohorts of animals to be highlighted. […] Finally, the dose of 5-MeO-DMT was reduced to 10 mg/kg. The order and timing of all the behavioral paradigms were kept constant between the cohorts. A timeline of this experimental cohort is described in FIG. 8B. Additionally, 5-MeO-DMT administrations were staggered so animals could be observed for the duration of acute drug effects and to ensure recovery prior to the next animal being injected. The typical symptoms of psychedelic drug administration outlined above were reproduced in all animals administered 5-MeO-DMT.

cerebral organoids = conditions: 5-MeO-DMT treated cerebral organoids; cited from earlier work
G9a = experiment: Western blot of G9a in brain regions, chronic cocaine ± 5-MeO-DMT; type: in vivo, Male Wistar rats
Excerpt: Male Wistar rats aged 7 weeks were acclimatized to the facility for 1 week prior to the beginning of the study. […] Animals were euthanized 23- or 119-hours following vehicle or 5-MeO-DMT administration.
Following euthanasia brain regions of interest were isolated. Briefly, the olfactory bulbs were removed before the brain was placed in a rat brain matrix (FIG. 2A). Sterile blades were inserted at positions 2 and 3 (FIG. 2B) to extract a coronal slice containing the Bregma+˜0.2-+˜2.2 coordinates (FIG. 2C). From this tissue slice a blunted 12 G needle was used to punch dissect the NAc and dorsal striatum (DS) (FIG. 2D-2E) identified using the rat brain atlas (Panxinos and Watson 2nd edition). The PFC, hippocampus (Hip) and amygdala (Amyg) were then blunt dissected (FIG. 3A-3D). All regions were frozen in liquid nitrogen and stored at −80° C. until processed.
These treatment groups were used for the molecular assessment of addiction-linked markers.
Determination of protein concentration—a bicinchoninic acid assay (BCA, ThermoFisher) was conducted to determine the total protein concentration in tissue lysates following manufacturer's instructions. Briefly, bovine serum albumin (BSA) standards were prepared in a serial dilution (0-2.0 mg protein/ml) and 200 μl working reagent (50:1, reagent A: reagent B) was added to each of the standards and samples in a 96 well plate (Greiner). For tissue lysates a 1:10 dilution was performed with cell lysis buffer to ensure absorbance values lay within the working range established by the standards. All samples and standards were added in duplicate. The plate was covered and incubated for 30 mins at 37° C. before absorbance was read at 562 nm on a plate reader (SpectraMax M3). The absorbance values were used to form a standard curve of known protein concentrations and protein concentration of samples were derived using the equation of the line. All samples were standardized to the lowest protein concentration using distilled H20 (dH2O).
SDS-PAGE and Western Blotting—Following equalisation of protein concentrations, 6× sample loading buffer (15% SDS, 15% […], 50% glycerol, 0.01% bromophenol blue, […]) was added to each sample using a dilution factor of 1:5 of the total volumes before boiling at 100° C. for 5 mins. Samples were stored at −20° C. until use. One dimensional sodium-dodecyl-sulphate polyacrylamide gel electrophoresis (SDS-PAGE) was used for protein separation based on molecular weight. The percentage of acrylamide in the resolving or stacking gel was determined by the molecular weight of the protein of interest. In this instance all gels consisted of a 5% stacking gel and a 10% resolving gel with the exception of mGluR5, G9a (8%) and H3K9Me2 (12%). 20 μg of protein was loaded and resolved using SDS-PAGE. Gel electrophoresis was conducted at 80V while the protein was in the stacking gel, once it migrated to the resolving gel the voltage was increased to 120V and ran for 90 mins. Samples were transferred to a 0.45 μm polyvinylidene difluoride (PVDF) membrane (Analab) for 1 hour at 100V and blocked in 5% milk blocking solution made in tris-buffered saline containing tween®-20 (TBS-T, Sigma) for 90 mins. Primary antibodies (FIG. 5) were diluted in 5% BSA in TBS-T and incubated with membranes overnight at 4° C. or for 2 hours at room temperature. After incubation with primary antibodies the membranes were washed in TBS-T for 4×10 minutes before incubation with 1:2000 anti-rabbit and 1:2000 anti-mouse Alexa Fluro® conjugated secondary antibodies (Invitrogen) in 2% milk for 1 hour at room temperature. Membranes were washed in TBS-T for 4×10 minutes and in TBS for 1×10-minute wash. Proteins were visualized using Odyssey® infrared imaging system. Protein expression was quantified using Image Studio Lite (Version 5.2) and expression intensities were normalized to a house keeping protein, α-Tubulin or β-actin.

| SMILES | decrease in H3K9Me2 expression (H3K9Me2) [%] | time to emergence of symptoms indicative of acute serotonin-associated toxicity (rats; cohort 1 (20 mg/kg 5-MeO-DMT)) [min] | adverse effects after administration (rats; cohort 1, 20 mg/kg 5-MeO-DMT, 1 h after last saline or cocaine) | animals that died or were euthanized for ethical reasons (rats; cohort 1, all animals administered 20 mg/kg 5-MeO-DMT) | animals that died or were euthanized (rats; cohort 1, cocaine+5-MeO-DMT (20 mg/kg) group) [animals] | animals that died or were euthanized (rats; cohort 1, saline+5-MeO-DMT (20 mg/kg) group) [animals] | animals euthanized for early signs of serotonin-associated toxicity (rats; cohort 2, saline+5-MeO-DMT (10 mg/kg) group) [animals] | mGluR5 receptor expression (cerebral organoids) | G9a expression (G9a; PFC, 24 h, cocaine+20 mg/kg 5-MeO-DMT relative to saline+vehicle) | G9a expression (G9a; dorsal striatum, 24 h, 20 mg/kg 5-MeO-DMT alone) | G9a expression (G9a; dorsal striatum, 24 h, cocaine + either concentration of 5-MeO-DMT (10 or 20 mg/kg)) | G9a expression (G9a; dorsal striatum, 120 h, 20 mg/kg 5-MeO-DMT alone) | G9a expression (G9a; hippocampus, 5-MeO-DMT alone) | G9a expression (G9a; hippocampus, 24 h, cocaine+20 mg/kg 5-MeO-DMT) |
| --- | --- | --- | --- | --- | --- | --- | --- | --- | --- | --- | --- | --- | --- | --- |
| COC(=O)[C@H]1[C@@H](OC(=O)c2ccccc2)C[C@@H]2CC[C@H]1N2C.Cl [cocaine, cocaine hydrochloride, reference compound] | 15 |  |  |  |  |  |  |  |  |  |  |  |  |  |
| COc1ccc2[nH]cc(CCN(C)C)c2c1 [5-MeO-DMT, 5-methoxy-N,N-dimethyltryptamine] |  | 5 to 10 | strong adverse effects in a significant proportion of animals | 7 of the 16 | 5 | 2 | 2 | decrease in mGluR5 receptor expression | significant decrease in G9a expression | increased G9a expression levels | significantly reduced G9a levels relative to the cocaine+vehicle group | remained significantly elevated | no change in enzyme expression | normalised the cocaine-induced decrease in G9a |
